# Assay results published in patent US20260226079A1, “A STRATEGY FOR THE SELECTIVE REMOVAL OF MRI CONTRAST AGENTS” (Portland State University, priority 2023, published 2026).
# Marks after values point to notes of the source that are not given here.
# What was measured:
# [1] = 20 MHz and 298 K, comparison value; cited from earlier work
# [2] = SPAAC selective interception of GdDO3A-azido monoamide chelate on DBCO-PS beads, Gd by ICP-MS; conditions: pH 7, 37° C.
# Protocol: The GdDO3A-azido monoamide chelate and DBCO-PS beads shown in FIG. 15 were utilized in a similar experiment described previously. Due to the expensive DBCO starting material, the beads were generated on small scales. Accordingly, the scales of the experiments were reduced to 50 mg bead starting material and 0.5 equivalents of GBCA consistent with the loading capacity determined for each batch of DBCO-PS. All other conditions remained constant (1 mL reaction volume, 37° C., 1,000 rpm mixing at pH 7). Samples were prepared for ICP-MS analysis using the same method as previously described with fewer dilutions. The experiments were run with variable reaction times, matrix, and percentage DMSO.
# [3] = 1H NMRD relaxivity profiles and parametric fitting (SBM / Lipari-Szabo); format: physicochemical; design: ^298D: unit not given here; conditions: for ^22r1 (298K), relaxivity: 20 MHz; for ^22r1 (298K), relaxivity / ER / Δ^2 / τRG, global rotational correlation time constant / τV: pH 7.0 (N3), pH 6.8 (DBCO); for EV / ^298D / a / q / r: fixed during fitting
# Protocol: FIG. 19 is a plot illustrating the GdDO3A-DBCO monoamide ^1H NMRD profiles at 283 (blue, top line), 298 (black, middle line) and 310 K (red, lower line), measured at pH 6.8, and a Gd^3+ concentration of 1.32 mM.
# FIG. 21 is a plot illustrating the GdDO3A-azido monoamide ^1H NMRD profiles at 283 (blue, top line), 298 (black, middle line) and 310 K (red, lower line), measured at pH 7.0.
# (§1) Previous work by the inventors has shown that chelates functionalized with bulky aromatic groups have the propensity to self-associate in solution. […] The most common methods to determine the physico-chemical properties described by SBM theory are through fittings of experimental data obtained from the reduced ^17O transverse relaxation rate, R2p, as a function of temperature and relaxivity, ri, as a function of proton Larmor frequency i.e. nuclear magnetic resonance dispersion (NMRD) profiles.
# The NMRD profiles of GBCAs are used to characterize several important physico-chemical parameters described by SBM theory. The most influential parameter which affects the shape of an NMRD curve is the rotational correlation time constant (τR) of the complex. Macromolecular species which tumble slowly impart a positive impact on relaxivity at all fields, but particularly at high fields presented as a characteristic “hump” in the 10-60 MHz region, distinct from quickly tumbling chelates in which relaxivity continues to decrease with increasing field strength. The molecular weight of the GdDO3A-DBCO monoamide would not be considered a large macromolecular structure; any indication of a slowly tumbling complex would be indicative of an aggregate species which we hypothesized as the self-associating chelate. As shown below in FIG. 19, relaxivity is quite high in low field regions where electronic spin relaxation contributes, followed by a characteristic dispersion around 1 MHz when the contribution drops off. There is a “hump” around 20 MHz which is indicative of a slowly tumbling species, consistent with a self-associating chelate. This macromolecular structure is the source of a rather high relaxivity of 7.1 mM^−1s^−1 (20 MHz, pH 6.8, 298 K) in comparison to most clinical agents which remain in the 4 mM^−1 s^−1-5 mM^−1s^−1 range.
# The global and local rotational correlation time constants were 375 ps and 107 ps, respectively. […] This further corroborated the presence of a self-association which led to a decrease in the efficiency observed in selective interception trials.
# The dispersion at 1-10 MHz corresponded to a typical drop-off of the electronic spin relaxation contribution, followed by continued decrease in relaxivity with increasing field strength. There was no evidence of a slowly tumbling structure which was reflected in a standard parametric fitting procedure with one discrete rotational contribution.
# [4] = Temperature-dependent 17O R2p transverse relaxation rate (67.8 MHz, 11.74 T) and fitting; format: physicochemical; conditions: for τM, water residence lifetime / AO/h / Δ HM: fitted; for τM, water residence lifetime: pH 7.0 (GdDO3A-N3-monoamide), pH 6.8 (GdDO3A-DBCO-monoamide); for AO/h / Δ HM: pH 7.0 (N3), pH 6.8 (DBCO)
# Protocol: FIG. 18 is a plot illustrating the GdDO3A-DBCO monoamide temperature-dependent R2p relaxation rate of ^17O measured at 67.8 MHz (11.74 T) pH 6.8, and a Gd^3+ concentration of 6.5 mM.
# FIG. 20 is a plot illustrating the GdDO3A-azido monoamide temperature-dependent R2p relaxation rate of ^17O measured at 67.8 MHz (11.74 T) pH 7.0, and a Gd^3+ concentration of 8.5 mM.
# as §1
# Analysis of the reduced transverse relaxation rate constant of ^17O (R2p) as a function of temperature is the most common experimental technique to determine water residence lifetime, τM. The function typically resembles a bell curve where the inflection point temperature is an indicator of water exchange kinetics. The experiments were performed at a pH of 6.8 and a Gd^3+ concentration of 6.5 mM. Precipitation was observed below 295 K. The ^17O curve reached an inflection point at about 310 K, and the fitted value of τM was 545 ns, comparatively slow in the context of achieving high relaxivities but fast enough that exchange is in the fast exchange regime and rl is sensitive to changes in molecular tumbling, […].
# Unsurprisingly, the shape is nearly identical to the DBCO-containing counterpart; both are monoamides and a similar water exchange rate would be expected. In this case, the water residence lifetime time constant (τM) was equivalent to the DBCO ligand at 545 ns.
# [5] = SPAAC selective interception of GdDO3A-DBCO monoamide chelate on azide terminated PS beads, Gd in supernatant by ICP-MS; conditions: for % Gd Remaining: 50° C., 1,000 rpm, 24 hours
# Protocol: To address potential stability issues associated with the GdTTHA-Alkyne and azide-PS beads system, tri-acetate mono-amide chelate systems were tested, that may experience fewer experimental difficulties. The initial SPAAC reactions were carried out with GdDO3A-DBCO monoamide chelate and azide terminated bead (FIG. 13). The Gd^3+ concentration was temporally monitored in the supernatant to gain a sense of reaction kinetics and optimal reaction times. To avoid mechanical stirring, a temperature-controlled thermomixer was used which mixed through agitation and was capable of batch testing. And the reaction was analyzed by ICP-MS.
# All experiments were performed on a 100 mg bead scale with 0.5 equivalents of GdDO3A-DBCO monoamide chelate in water (1 mL) agitated at 1,000 rpm and 50° C. […] were selected: 3 minutes, 3 hours, 6 hours, 9 hours and 24 hours. The reactions were stopped at their respective time point, the sample was centrifuged and the supernatant was decanted and filtered. The beads were washed and centrifuged three times before the filtered supernatant was freeze dried and digested in HNO3 for ICP-MS analysis.
# The effect of pH at relevant pH ranges of urine (~4.5-8) on the efficiency of Gd removal was investigated. Additionally, the role of an organic cosolvent was investigated to determine whether the aqueous medium is a limiting factor in efficiency. A pH range of 5-9 was tested with 1:1 v:v DMSO:H2O at 50° C. stirring at 1,000 rpm for 24 hours. The reaction mixtures were centrifuged, and the supernatant was decanted and filtered. The beads were washed and centrifuged in triplicate and the supernatants were freeze dried and digested for ICP-MS analysis, data summarized below in Table 1.
# A multivariate approach was designed to establish the interaction between various levels of cosolvent volume, reaction time and temperature. The volume of DMSO was lowered with the hope of identifying other contributing factors that would lead to an enhanced outcome using a minimal amount of organic cosolvent. Additionally, the temperature ranged from 25° C. to 50° C. and the reaction time was assessed over 0.5 hours and 24 hours, and at pH 7. The scale of the beads and GdDO3A-DBCO monoamide chelate remained the same as previous trials at a 100 mg scale with 0.5 equivalents of GBCA while mixing at 1,000 rpm. The beads were centrifuged, washed, and digested in nitric acid for ICP-MS analysis using the methods described previously, results summarized below in Table 2.
# Following the suboptimal results from previous trials with a smaller volume of DMSO cosolvent, the range of added cosolvent was increased to 50% v:v. Additionally, a simulated urine matrix, Surine™, was added to test if there were any significant effects from any urine constituents on the reaction efficiency. The experiments were run with variable reaction times, matrix and percentage DMSO at pH 7 and 37° C.
# [6] = fitted, Lipari-Szabo approach, pH 6.8
smiles,measurement,setting,value
O=C([O-])CN1CCN(CC(=O)[O-])CCN(CC(=O)O)CCN(CC(=O)[O-])CC1.[Gd+3] [GdDOTA],relaxivity,[1],4.5 mM⁻¹ s⁻¹
[Gd+3].[N-]=[N+]=NCCCNC(=O)CN1CCN(CC(=O)[O-])CCN(CC(=O)[O-])CCN(CC(=O)[O-])CC1 [GdDO3A-azido monoamide],Gd Remaining (%),"[2]; Entry 1: 0.5 hr, Water, 0% DMSO",39%
same,Gd Remaining (%),"[2]; Entry 2: 0.5 hr, Water, 50% DMSO",36%
same,Gd Remaining (%),"[2]; Entry 3: 8 hr, Water, 0% DMSO",40%
same,Gd Remaining (%),"[2]; Entry 4: 8 hr, Water, 50% DMSO",35%
same,Gd Remaining (%),"[2]; Entry 5: 0.5 hr, Surine, 0% DMSO",27%
same,Gd Remaining (%),"[2]; Entry 6: 0.5 hr, Surine, 50% DMSO",37%
same,Gd Remaining (%),"[2]; Entry 7: 8 hr, Surine, 0% DMSO",39%
same,Gd Remaining (%),"[2]; Entry 8: 8 hr, Surine, 50% DMSO",38%
same,"^22r1 (298K), relaxivity",[3],4.7 mM⁻¹ s⁻¹
same,ER,[3]; fitted,17.9 kJ/mol
same,Δ^2,[3]; fitted,5.7 10^19 s^−2
same,"τRG, global rotational correlation time constant",[3]; fitted,70 ps
same,τV,[3]; fitted,8.4 ps
same,EV,[3],1.0^a kJ mol^−1
same,^298D,[3],2.24
same,a,[3],4.0^a Å
same,q,[3],1^a
same,r,[3],3.0^a Å
same,"τM, water residence lifetime",[4],545 ns
same,AO/h,[4],−3.2 10^6 rad s^−1
same,Δ HM,[4],46 kJ/mol
O=C([O-])CN1CCN(CC(=O)[O-])CCN(CC(=O)NCCC(=O)N2Cc3ccccc3C#Cc3ccccc32)CCN(CC(=O)[O-])CC1.[Gd+3] [GdDO3A-DBCO monoamide],Gd Remaining (%),"[5]; Entry 1: 0.5 hr, Water, 0% DMSO, pH 7, 37° C.",27%
same,Gd Remaining (%),"[5]; Entry 1: cosolvent 0 μL, 25 °C, 0.5 hr, pH 7",71%
same,Gd Remaining (%),"[5]; Entry 2: 0.5 hr, Water, 50% DMSO, pH 7, 37° C.",28%
same,Gd Remaining (%),"[5]; Entry 2: cosolvent 0 μL, 25 °C, 24 hr, pH 7",70%
same,Gd Remaining (%),"[5]; Entry 3: 8 hr, Water, 0% DMSO, pH 7, 37° C.",27%
same,Gd Remaining (%),"[5]; Entry 3: cosolvent 100 μL, 25 °C, 0.5 hr, pH 7",68%
same,Gd Remaining (%),"[5]; Entry 4: 8 hr, Water, 50% DMSO, pH 7, 37° C.",18%
same,Gd Remaining (%),"[5]; Entry 4: cosolvent 100 μL, 25 °C, 24 hr, pH 7",69%
same,Gd Remaining (%),"[5]; Entry 5: 0.5 hr, Surine, 0% DMSO, pH 7, 37° C.",28%
same,Gd Remaining (%),"[5]; Entry 5: cosolvent 0 μL, 50 °C, 0.5 hr, pH 7",67%
same,Gd Remaining (%),"[5]; Entry 6: 0.5 hr, Surine, 50% DMSO, pH 7, 37° C.",29%
same,Gd Remaining (%),"[5]; Entry 6: cosolvent 0 μL, 50 °C, 24 hr, pH 7",65%
same,Gd Remaining (%),"[5]; Entry 7: 8 hr, Surine, 0% DMSO, pH 7, 37° C.",30%
same,Gd Remaining (%),"[5]; Entry 7: cosolvent 100 μL, 50 °C, 0.5 hr, pH 7",69%
same,Gd Remaining (%),"[5]; Entry 8: 8 hr, Surine, 50% DMSO, pH 7, 37° C.",20%
same,Gd Remaining (%),"[5]; Entry 8: cosolvent 100 μL, 50 °C, 24 hr, pH 7",67%
same,second order rate constant of interception reaction,"[5]; extrapolated from integrated second order rate law, FIG. 14",48.4 M⁻¹ s⁻¹
same,% Gd Remaining,"[5]; pH 5, 1:1 v:v DMSO:H2O",1.64%
same,% Gd Remaining,"[5]; pH 7, 1:1 v:v DMSO:H2O",2%
same,% Gd Remaining,"[5]; pH 9, 1:1 v:v DMSO:H2O",1.6%
same,"^22r1 (298K), relaxivity",[3],7.1 mM⁻¹ s⁻¹
same,"aggregate rotates more slowly than the discrete chelate (global vs local rotation), fold",[3]; Lipari-Szabo fitting,over 3 ×
same,S^□,[3]; [6],0.36
same,"τRL, local rotational correlation time constant",[3]; [6],107 ps
same,ER,[3]; fitted,20.0 kJ/mol
same,Δ^2,[3]; fitted,3.5 10^19 s^−2
same,"τRG, global rotational correlation time constant",[3]; fitted,375 ps
same,τV,[3]; fitted,13 ps
same,EV,[3],1.0^a kJ mol^−1
same,^298D,[3],2.24
same,a,[3],4.0^a Å
same,q,[3],1^a
same,r,[3],3.0^a Å
same,"τM, water residence lifetime",[4],545 ns
same,AO/h,[4],−3.0 10^6 rad s^−1
same,Δ HM,[4],46 kJ/mol
same,inflection point of 17O R2p curve,"[4]; pH 6.8, Gd^3+ 6.5 mM",about 310 K
same,temperature below which precipitation was observed,"[4]; pH 6.8, Gd^3+ 6.5 mM",below 295 K
